Molecules are shown by their SMILES. Bounds are passed on as bounds.

In the assay the target is T1, PRMT5-MEP50 enzyme (Homo sapiens, UniProt O14744).
T1 construct: One virus expresses full length human PRMT5 with Flag-tag at N-terminus; Flag (N); purchased Charles River (Argenta); host or cells: insect cells (Sf9), baculovirus co-infection
T1 sequence (O14744 whole entry): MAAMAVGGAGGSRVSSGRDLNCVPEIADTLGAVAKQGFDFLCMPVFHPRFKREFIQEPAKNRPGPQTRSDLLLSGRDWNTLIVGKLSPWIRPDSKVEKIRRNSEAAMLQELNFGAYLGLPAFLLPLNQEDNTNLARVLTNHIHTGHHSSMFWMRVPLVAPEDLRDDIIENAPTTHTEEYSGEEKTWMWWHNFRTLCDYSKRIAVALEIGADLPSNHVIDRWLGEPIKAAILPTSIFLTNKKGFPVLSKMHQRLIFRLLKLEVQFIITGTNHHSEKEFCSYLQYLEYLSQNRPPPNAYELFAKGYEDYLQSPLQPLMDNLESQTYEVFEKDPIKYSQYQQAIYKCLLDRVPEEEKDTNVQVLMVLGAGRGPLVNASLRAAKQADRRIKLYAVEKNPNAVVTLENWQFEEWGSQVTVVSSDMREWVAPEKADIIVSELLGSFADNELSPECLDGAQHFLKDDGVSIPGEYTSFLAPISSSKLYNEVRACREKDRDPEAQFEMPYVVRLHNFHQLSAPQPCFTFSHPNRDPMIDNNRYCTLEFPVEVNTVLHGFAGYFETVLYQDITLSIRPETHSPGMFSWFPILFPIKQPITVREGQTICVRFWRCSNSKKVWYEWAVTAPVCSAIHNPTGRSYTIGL
T1 sequence (Q9BQA1 whole entry partner): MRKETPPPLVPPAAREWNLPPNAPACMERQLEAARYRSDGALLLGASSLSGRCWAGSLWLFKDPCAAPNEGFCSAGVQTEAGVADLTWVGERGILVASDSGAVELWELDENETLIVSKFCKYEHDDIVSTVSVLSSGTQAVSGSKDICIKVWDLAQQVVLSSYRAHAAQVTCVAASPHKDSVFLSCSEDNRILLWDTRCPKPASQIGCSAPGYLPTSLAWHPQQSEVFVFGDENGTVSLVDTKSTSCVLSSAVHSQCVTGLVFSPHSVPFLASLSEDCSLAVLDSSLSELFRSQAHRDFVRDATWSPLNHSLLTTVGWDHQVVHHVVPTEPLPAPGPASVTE
In words: In vitro assay 1b: PRMT5-MEP50 high throughput mass spectrometer assay (SAH formation), 1.25 nM enzyme. As to conditions: 1.25 nM enzyme, 1 μM SAM, 0.3 μM H2A, 30° C., 120 min; averaged values; read-out: pIC50 Assay 1b (converted). The format is biochemical. An excerpt: Experimental Procedures In Vitro Assay (Assay 1a and 1b)
PRMT5-MEP50 enzyme was purchased from Charles River (Argenta). The enzyme complex was produced in insect cells (Sf9) infected simultaneously with two baculoviruses. One virus expresses full length human PRMT5 with Flag-tag at N-terminus, the second virus expresses full length MEP50 with His6-TEV cleavage at N-terminus. The protein was affinity purified using anti-Flag (M2) beads eluted with 3×FLAG peptide, followed by His-Select eluted with 0.5M imidazole. Eluted protein was then dialysed against tris-buffered saline (TBS) (pH 8.0) containing 20% glycerol and 3 mM dithiothreitol (DTT).
Full-length untagged human recombinant histone H2A (residues 1-130, Genbank Accession #NM_021052, MW=14.1 kDa) expressed in E. coli was purchased from Reaction Biology Corporation, Cat #HMT-11-146. Reagents used for making reaction buffer or stopping reaction were purchased including Tris base (Sigma Cat #T-1503), NaCl (Sigma Cat #RGF-3270), MgCl2 (Sigma Cat #M0250), DTT (Invitrogen Cat #15508-013) and Formic Acid (Riedel deHaen, Cat #33015)
PRMT5 catalyzes the sequential methylations of the terminal nitrogen atoms on the guanidine groups of arginine residues within proteins using co-substrate S-adenosyl-L-methionine (AdoMet, SAM), forming mono-methyl (MMA), syrmmetric-dimethyl arginine (sDMA) and S-adenosyl-L-homocysteine (AdoHcy, SAH). The enzyme activity was determined by following the product SAH formation using high throughput mass spectrometry (Agilent Rapidfire 300 System coupled to a Sciex 4000 series QTrap® triple-quad MS/MS). The reaction buffer was 20 mM Tris-HCl, pH 8.5, 50 mM NaCl, 5 mM MgCl2 and 1 mM DTT. The reaction activity was stopped using 1% formic acid (final concentration).
The IC50 Studies were performed using eleven point dosing series made for each compound by serially diluted 1:2 in dimethyl sulfoxide (DMSO), with point 12 being a DMSO control. Compounds were first spotted to plates, and followed by addition of 2 μM SAM and 0.6 μM H2A (histone H2A) solution mixture. The same volume of enzyme solution was added to initiate the enzymatic reactions. The final concentrations of the reaction are at 1 μM SAM, 0.3 μM H2A and 10 nM enzyme (assay 1a) or or 1.25 nM enzyme (assay 1b). The reaction was incubated at 30° C. for 60 minutes (min) when 10 nM enzyme was used and for 120 min when 1.25 nM enzyme was used. Subsequently, the reaction was quenched by addition of formic acid to a final concentration of 1%. The inhibitions of SAH formation in the presence of compounds were calculated as a percentage of the control relative to the uninhibited reaction as a function of inhibitor concentration. The data were fit as follows: Y=Bottom+(Top−Bottom)/(1+10^((log IC50−X)*h))
where IC50 is the inhibitor concentration (same unit as X) at 50% inhibition and h is the Hill slope. Y is percent of inhibition, X is log of compound concentration. Bottom and Top are the plateaus in same units as Y.
Consider `Nc1ncnc2c1ccn2[C@@H]1C[C@H](CCc2ccn3cc(C(F)(F)F)nc3c2)[C@@H](O)[C@H]1O` [Compound 23], for which the IC50 is 39.8 nM.
With `CC(=O)Nc1cn2ccc(CC[C@H]3C[C@@H](n4ccc5c(N)ncnc54)[C@H](O)[C@@H]3O)cc2n1` [Compound 31] the figure was 63.1 nM; with `Cc1cn2ccc(OC[C@H]3C[C@@H](n4ccc5c(N)ncnc54)[C@H](O)[C@@H]3O)cc2n1` [Compound 33], 5.01 nM.
On to `Nc1cc(/C=C/[C@H]2C[C@@H](n3ccc4c(N)ncnc43)[C@H](O)[C@@H]2O)ccn1` [Compound 36], for which the IC50 is 2000 nM.
For the molecule `Nc1cccc(/C=C/[C@H]2C[C@@H](n3ccc4c(N)ncnc43)[C@H](O)[C@@H]2O)n1` [Compound 37], the IC50 is 794 nM.
Regarding `Cn1cncc1CC[C@H]1C[C@@H](n2ccc3c(N)ncnc32)[C@H](O)[C@@H]1O` [Compound 38], the IC50 is 794 nM.
With `CC(c1cncn1C)[C@H]1C[C@@H](n2ccc3c(N)ncnc32)[C@H](O)[C@@H]1O` (stereo partly drawn) [Compound 39] the figure was 2000 nM; with `Nc1cccc(CCC[C@H]2C[C@@H](n3ccc4c(N)ncnc43)[C@H](O)[C@@H]2O)n1` [Compound 40], 79.4 nM.
`Nc1cc2cccc(CCC[C@H]3C[C@@H](n4ccc5c(N)ncnc54)[C@H](O)[C@@H]3O)c2cn1` [Compound 41]: the IC50 is 398 nM.
With `Nc1ncnc2c1ccn2[C@@H]1C[C@H](CCCc2cccnc2)[C@@H](O)[C@H]1O` [Compound 42] the figure was 316 nM; with `Nc1ncnc2c1ccn2[C@@H]1C[C@H](CCCc2cnc3ccccc3c2)[C@@H](O)[C@H]1O` [Compound 43], 251 nM.
For the molecule `Nc1ncnc2c1ccn2[C@@H]1C[C@H](CCCc2cnc3c(N)cccc3c2)[C@@H](O)[C@H]1O` [Compound 44], the IC50 is 1580 nM.
With `Nc1cc(CCC[C@H]2C[C@@H](n3ccc4c(N)ncnc43)[C@H](O)[C@@H]2O)ccn1` [Compound 45] the figure was 501 nM; with `Nc1ncnc2c1ccn2[C@@H]1C[C@H](CCCc2ccccn2)[C@@H](O)[C@H]1O` [Compound 46], more than 2510 nM.
With `Nc1ncnc2c1ccn2[C@@H]1C[C@H](CCCc2ccc3cccnc3c2)[C@@H](O)[C@H]1O` [Compound 47] the figure was 1580 nM; with `Nc1ncnc2c1ccn2[C@@H]1C[C@H](CCCc2ccn3ccnc3c2)[C@@H](O)[C@H]1O` [Compound 48], 31.6 nM; with `Nc1ncnc2c1ccn2[C@@H]1C[C@H](CCCc2ccncc2)[C@@H](O)[C@H]1O` [Compound 49], more than 2510 nM.
For the molecule `Nc1ccc2cccc(CCC[C@H]3C[C@@H](n4ccc5c(N)ncnc54)[C@H](O)[C@@H]3O)c2n1` [Compound 50], the IC50 was 31.6 nM.
With `Nc1ncnc2c1ccn2[C@@H]1C[C@H](CCCc2cccc3ccncc23)[C@@H](O)[C@H]1O` [Compound 51] the figure was 316 nM; with `Nc1ncnc2c1ccn2[C@@H]1C[C@H](CCCc2cccc3cccnc23)[C@@H](O)[C@H]1O` [Compound 52], more than 2510 nM.
With `Nc1ccc(CCC[C@H]2C[C@@H](n3ccc4c(N)ncnc43)[C@H](O)[C@@H]2O)cn1` [Compound 53], the IC50 was 2 nM.
For the molecule `Nc1cc2cccc(CCCC[C@H]3C[C@@H](n4ccc5c(N)ncnc54)[C@H](O)[C@@H]3O)c2cn1` [Compound 54], the IC50 is 100 nM.
With `Nc1cccc(CCCC[C@H]2C[C@@H](n3ccc4c(N)ncnc43)[C@H](O)[C@@H]2O)n1` [Compound 55] the figure was 0.398 nM; with `Nc1ccc(CCCC[C@H]2C[C@@H](n3ccc4c(N)ncnc43)[C@H](O)[C@@H]2O)cn1` [Compound 56], 7.94 nM; with `Nc1cc(CCCC[C@H]2C[C@@H](n3ccc4c(N)ncnc43)[C@H](O)[C@@H]2O)ccn1` [Compound 57], 79.4 nM.
With `Nc1ncnc2c1ccn2[C@@H]1C[C@H](CCCCc2cccc3cccnc23)[C@@H](O)[C@H]1O` [Compound 58] the figure was more than 2510 nM.
Take `Nc1ncnc2c1ccn2[C@@H]1C[C@H](CCCCc2cnc3c(N)cccc3c2)[C@@H](O)[C@H]1O` [Compound 59]: the IC50 was 2000 nM.
Regarding `Nc1ncnc2c1ccn2[C@@H]1C[C@H](CCCCc2ccc3cccnc3c2)[C@@H](O)[C@H]1O` [Compound 60], the IC50 is 251 nM.
For `Nc1ncnc2c1ccn2[C@@H]1C[C@H](CCCCc2ccn3ccnc3c2)[C@@H](O)[C@H]1O` [Compound 61], the IC50 is 7.94 nM.
With `Nc1ncnc2c1ccn2[C@@H]1C[C@H](CCCCc2cnc3ccccc3c2)[C@@H](O)[C@H]1O` [Compound 62] the figure was 794 nM; with `Nc1ncnc2c1ccn2[C@@H]1C[C@H](CCCCc2ccncc2)[C@@H](O)[C@H]1O` [Compound 63], 2000 nM.
For `Nc1ncnc2c1ccn2[C@@H]1C[C@H](CCCCc2ccccn2)[C@@H](O)[C@H]1O` [Compound 64], the IC50 is 100 nM.
With `Nc1ccc2cccc(CCCC[C@H]3C[C@@H](n4ccc5c(N)ncnc54)[C@H](O)[C@@H]3O)c2n1` [Compound 65] the figure was 10 nM; with `Nc1ncnc2c1ccn2[C@@H]1C[C@H](CCCCc2cccc3ccncc23)[C@@H](O)[C@H]1O` [Compound 66], 39.8 nM; with `Nc1ncnc2c1ccn2[C@@H]1C[C@H](CCc2cccnc2)[C@@H](O)[C@H]1O` [Compound 67], 501 nM.
With `Nc1ncnc2c1ccn2[C@@H]1C[C@H](CCc2cn[nH]c2)[C@@H](O)[C@H]1O` [Compound 68] the figure was 1260 nM; with `Nc1ncc(CC[C@H]2C[C@@H](n3ccc4c(N)ncnc43)[C@H](O)[C@@H]2O)cn1` [Compound 69], 2000 nM.
As for `Nc1ncnc2c1ccn2[C@@H]1C[C@H](CCc2cnc(Nc3ccc(Cl)cc3)nc2)[C@@H](O)[C@H]1O` [Compound 70], the IC50 was 501 nM.
With `Nc1ncnc2c1ccn2[C@@H]1C[C@H](CCC2=CC3=NC(=O)CN3C=C2)[C@@H](O)[C@H]1O` [Compound 71] the figure was 100 nM; with `Nc1ncnc2c1ccn2[C@@H]1C[C@H](CCc2cnc3c(c2)OCCN3)[C@@H](O)[C@H]1O` [Compound 72], 12.6 nM; with `Nc1ncnc2c1ccn2[C@@H]1C[C@H](CCc2cnc3c(c2)CCN3)[C@@H](O)[C@H]1O` [Compound 73], 25.1 nM.
With `Nc1ncnc2c1ccn2[C@@H]1C[C@H](Cn2ccc3ccncc32)[C@@H](O)[C@H]1O` [Compound 75] the figure was 251 nM.

Values taken from patent US11098062B2, “Monocyclic and bicyclic ring system substituted carbanucleoside analogues for use as PRMT5 inhibitors” (Janssen Pharmaceutica NV, priority 2016, dated 2021).
